From patent US12398121B2 (Nuvation Bio Inc., priority 2018, dated 2025)

Assays:
Human recombinant PARP1 = Human recombinant PARP1 (Homo sapiens, UniProt P09874); assay: RBC HotSpot PARP1 radioisotope-based filter binding assay; assay type: biochemical; settings: 2.5 nM enzyme, histone H4, 10 μM 32P-NAD+; read-out: PARP1 IC50
Experimental: (§1) The following methods are for evaluating the in vitro biology properties of the test articles. • a. RBC HotSpot Poly(ADP-ribose) Polymerases 1 (PARP1) and Poly(ADP-ribose) Polymerases 2 (PARP2) Assays: The assay principle is radioisotope-based filter binding assay where incorporation of radioisotope-labeled NAD^+ into the substrate captured on filter is detected after washout free NAD^+. Data were analyzed using Excel and GraphPad Prism software for IC50 curve fits. Each assay was conducted with PJ34 as a positive control. • i. PARP1 assay: Human recombinant PARP1 at a final concentration of 2.5 nM was combined with histone H4 (20 μM) and test articles at various concentrations in reaction buffer (50 mM Tris-HCL, pH 8.0, 50 mM NaCl, 10 mM MgCl2, 1 mM DTT, 1% DMSO, and 20 μg/mL activated DNA). The solution was inoculated for 20 min at room temperature and the reaction initiated by adding [adenylate-^32P]-Nicotinamide Adenine Dinucleotide, ^32P-NAD^+ at a final concentration of 10 μM. After incubation for 2 hour at room temperature, the reaction mixture was filtered and washed with 0.75% phosphoric acid for radioactivity detection. • ii. PARP2 assay: Human recombinant PARP2 at a final concentration of 2.5 nM was combined with histone H3 (20 μM) and test articles at various concentrations in reaction buffer (50 mM Tris-HCL, pH 8.0, 50 mM NaCl, 10 mM MgCl2, 1 mM DTT, 1% DMSO, and 20 μg/mL activated DNA). The solution was inoculated for 20 min at room temperature and the reaction was initiated by adding [adenylate-^32P]-Nicotinamide Adenine Dinucleotide, ^32P-NAD^+ at a final concentration of 10 μM. After incubation for 2 hour at room temperature, the reaction mixture was filtered and washed with 0.75% phosphoric acid for radioactivity detection. • b. AR binding assay: AR in LNCaP cytosol was used for determining the binding affinity of test articles and the reference compound—progesterone (Sigma, Cat: E2785, St. Louis, MO). IC50s were determined using 8 concentrations/compound. Cytosol was plated at 200 μg/well (100 μL) into a 96-well conical polypropylene plate (Agilent, Cat: 5042-1385, Santa Clara, CA) and mixed with 3 μL of test compound. After adding 100 μL of ^3H-methyltrienolone (PerkinElmer, Cat: NET590250UC, San Jose, CA), the plate was sealed and shaken at 300 rpm at 4° C. for 24 hours. Post incubation, 100 μL of radioligand adsorption buffer containing 10 mM Tris-HCl, pH 7.4; 1.5 mM EDTA; 1 mM DTT; 0.25% charcoal; 0.0025% dextran was added to individual well. Plate was shaken for 15 min at 4′C followed by centrifugation at 3000 rpm for 30 min at 4° C. 150 μL of supernatant was transferred into scint-tube (PerkinElmer, Cat: 6000192) and mixed with 2 mL of Ultima Gold Cocktail (PerkinElmer, Cat: 6013329). Radioactivity was counted using a TriCarb 2910 TR scintillation counter (PerkinElmer). Inhibition of the radioactivity by test articles were calculated using the equation below: % Inhibition=(1−(Assay well−Average_LC)/(Average_HC−Average_LC))×100%.

Human recombinant PARP2 = Human recombinant PARP2 (Homo sapiens, UniProt Q9UGN5); assay: RBC HotSpot PARP2 radioisotope-based filter binding assay; assay type: biochemical; settings: 2.5 nM enzyme, histone H3, 10 μM 32P-NAD+; read-out: PARP2 IC50
Experimental: as §1

22RV1 cells = assay: Cell proliferation assay (CellTiter Glo), 22RV1; assay type: cell-based; settings: Homo sapiens, 22Rv1, 72 h; cell growth inhibition, three days of treatment; read-out: 22RV1 IC50
Experimental: (§2) IC50 values were calculated and graphed using the model “log(inhibitor) vs. response—Variable slope” included in GraphPad Prism 5 (San Diego, CA). The Ki values were further calculated using the equation below where [L] was the radioligand concentration (1 nM) using in this study. Kd value was 0.332 nM. Ki=IC50/(1+[L]/Kd) c. AR transactivation: Human AR cloned into a CMV vector backbone was used for the transactivation study. HEK-293 cells were plated at 80,000 cells per well of a 24 well plate in DME+5% csFBS. Twenty four hours later, the cells were transfected using Lipofectamine (Invitrogen, Carlsbad, CA) with 0.25 μg GRE-LUC, 0.01 μg CMV-LUC (renilla luciferase) and 25 ng of the AR in OPTIMEM medium. The cells were treated 24 hrs after transfection with various ligands (10^−12 to 10^−5 M final concentrations) and luciferase assay were performed 48 hours after transfection. Firefly values were normalized to renilla luciferase values and the values were represented as relative light units (RLU). Agonist and antagonist assays for the test article were performed in the absence and in the combination with 0.1 nM R1881, respectively. Data were represented as EC50 (for agonists) and IC50 (for antagonists) obtained from four parameter logistics curve. Cell culture and proliferation assays: LNCaP, PC-3, 22RV1, MCF-7, HT-29, and HCT-116 cells were procured from American Type Culture Collection (ATCC). Cells were cultured in medium recommended by the ATCC. Cell culture medium was obtained from Fisher scientific (Waltham, MA) and serum was obtained from Hyclone (San Angelo, TX).
(§3) Cells were plated at varying density in the respective growth medium in 96 well plates. 24 hr later, cells were treated, in triplicate or quadruplicate, with test articles prepared in a range of concentrations by series dilution of DMSO stock solutions in growth medium and incubated for three to seven days. The number of viable 22RV1 and HT-29 cells was measured using CellTiter Glo assay (CTG, Promega, Madison, WI) after three days of treatment. The other types of cancer cells were re-treated at three or four days and the number of viable cells was measured using CTG assay after a total treatment time of six or seven days. Cell viability data were plotted using GraphPad Prism (GraphPad Software, Inc., San Diego, CA). In addition, a nonlinear regression model with a sigmoidal dose response and variable slope within GraphPad Prism was used to calculate the IC50 value of individual test articles. Additional cell proliferation assays: Other cancer cell lines are tested in a cell proliferation assay. For example, SK-OV-3 or OVCAR3 ovarian cancer cells are tested. Cells are cultured in medium recommended by the supplier (e.g., ATCC or JCRB Cell Bank), at 37° C. in a 5% CO2 environment. For the proliferation assay, cells are plated in the growth medium in 96 well plates. Seeding density is adjusted according to the cell type. 24 hr later, cells are treated, in triplicate or quadruplicate, with test articles prepared in a range of concentrations by series dilution of DMSO stock solutions in growth medium, and typically incubated for three to seven days, with test article-containing medium replaced after three or four days. The number of viable cells is measured using CellTiter Glo assay (CTG, Promega, Madison, WI) or similar. Cell viability data are plotted using GraphPad Prism (GraphPad Software, Inc., San Diego, CA). In addition, a nonlinear regression model with a sigmoidal dose response and variable slope within GraphPad Prism is used to calculate the IC50 value of individual test articles. Similarly, HEK-293 and HeLa calls can also be tested by methods known in the art. • f. Nuclear translocation: LNCaP cells are plated on coverslips in 24 well plates in growth medium. Twenty-four hours after plating, medium is changed to RPMI+1% csFBS and the cells are maintained in this medium for two days. Medium is replaced again and the cells are treated. […]

LNCaP cells = assay: Cell proliferation assay (CellTiter Glo), LNCaP; assay type: cell-based; settings: Homo sapiens, 168 h, cell growth inhibition, six or seven days total treatment, read-out: LNCaP IC50
Experimental: as §2
as §3, with “CA).” for “CA). In addition, a nonlinear regression model with a sigmoidal dose response and variable slope within GraphPad Prism is used to calculate the IC50 value of individual test articles. Similarly, HEK-293 and HeLa calls can also be tested by methods known in the art. • f. Nuclear translocation: LNCaP cells are plated on coverslips in 24 well plates in growth medium. Twenty-four hours after plating, medium is changed to RPMI+1% csFBS and the cells are maintained in this medium for two days. Medium is replaced again and the cells are treated.”

PC-3 cells = assay: Cell proliferation assay (CellTiter Glo), PC-3; assay type: cell-based; settings: Homo sapiens, PC-3, 168 h; cell growth inhibition, six or seven days total treatment; read-out: PC-3 IC50
Experimental: as §2
(§4) Cells were plated at varying density in the respective growth medium in 96 well plates. 24 hr later, cells were treated, in triplicate or quadruplicate, with test articles prepared in a range of concentrations by series dilution of DMSO stock solutions in growth medium and incubated for three to seven days. The number of viable 22RV1 and HT-29 cells was measured using CellTiter Glo assay (CTG, Promega, Madison, WI) after three days of treatment. The other types of cancer cells were re-treated at three or four days and the number of viable cells was measured using CTG assay after a total treatment time of six or seven days. Cell viability data were plotted using GraphPad Prism (GraphPad Software, Inc., San Diego, CA). In addition, a nonlinear regression model with a sigmoidal dose response and variable slope within GraphPad Prism was used to calculate the IC50 value of individual test articles. Additional cell proliferation assays: Other cancer cell lines are tested in a cell proliferation assay. For example, SK-OV-3 or OVCAR3 ovarian cancer cells are tested. […] The number of viable cells is measured using CellTiter Glo assay (CTG, Promega, Madison, WI) or similar. […]

HCT-116 cells = assay: Cell proliferation assay (CellTiter Glo), HCT-116; assay type: cell-based; settings: Homo sapiens, HCT-116, 168 h; cell growth inhibition, six or seven days total treatment; read-out: HCT-116 IC50
Experimental: as §2, §4

Human recombinant PARP1, sequence (P09874 whole entry): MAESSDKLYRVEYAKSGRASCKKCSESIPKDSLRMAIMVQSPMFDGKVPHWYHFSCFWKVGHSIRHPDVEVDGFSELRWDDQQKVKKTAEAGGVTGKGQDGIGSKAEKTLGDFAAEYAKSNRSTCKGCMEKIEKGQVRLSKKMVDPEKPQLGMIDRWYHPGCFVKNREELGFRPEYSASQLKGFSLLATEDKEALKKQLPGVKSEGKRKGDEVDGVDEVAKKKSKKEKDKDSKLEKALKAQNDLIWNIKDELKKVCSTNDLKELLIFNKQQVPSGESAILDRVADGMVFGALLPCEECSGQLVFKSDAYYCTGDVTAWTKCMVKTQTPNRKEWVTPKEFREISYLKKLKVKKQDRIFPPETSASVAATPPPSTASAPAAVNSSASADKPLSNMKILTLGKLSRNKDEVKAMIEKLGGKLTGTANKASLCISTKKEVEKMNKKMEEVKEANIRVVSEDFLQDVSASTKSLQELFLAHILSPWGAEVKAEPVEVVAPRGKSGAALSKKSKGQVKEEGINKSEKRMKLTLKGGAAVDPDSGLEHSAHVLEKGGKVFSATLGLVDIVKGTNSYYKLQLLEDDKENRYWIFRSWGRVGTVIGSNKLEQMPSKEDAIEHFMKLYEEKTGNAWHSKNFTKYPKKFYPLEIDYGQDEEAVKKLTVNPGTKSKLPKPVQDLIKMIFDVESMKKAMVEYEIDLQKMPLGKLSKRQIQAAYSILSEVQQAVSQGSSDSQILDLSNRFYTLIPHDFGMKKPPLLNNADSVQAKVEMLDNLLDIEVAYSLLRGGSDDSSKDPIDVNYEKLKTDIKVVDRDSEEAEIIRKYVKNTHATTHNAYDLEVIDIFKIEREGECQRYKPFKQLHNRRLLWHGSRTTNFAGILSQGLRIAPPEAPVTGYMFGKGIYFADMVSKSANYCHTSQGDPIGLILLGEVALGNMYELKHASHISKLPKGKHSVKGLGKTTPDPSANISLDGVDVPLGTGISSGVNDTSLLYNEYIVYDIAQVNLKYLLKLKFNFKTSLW
Human recombinant PARP2, sequence (Q9UGN5 whole entry): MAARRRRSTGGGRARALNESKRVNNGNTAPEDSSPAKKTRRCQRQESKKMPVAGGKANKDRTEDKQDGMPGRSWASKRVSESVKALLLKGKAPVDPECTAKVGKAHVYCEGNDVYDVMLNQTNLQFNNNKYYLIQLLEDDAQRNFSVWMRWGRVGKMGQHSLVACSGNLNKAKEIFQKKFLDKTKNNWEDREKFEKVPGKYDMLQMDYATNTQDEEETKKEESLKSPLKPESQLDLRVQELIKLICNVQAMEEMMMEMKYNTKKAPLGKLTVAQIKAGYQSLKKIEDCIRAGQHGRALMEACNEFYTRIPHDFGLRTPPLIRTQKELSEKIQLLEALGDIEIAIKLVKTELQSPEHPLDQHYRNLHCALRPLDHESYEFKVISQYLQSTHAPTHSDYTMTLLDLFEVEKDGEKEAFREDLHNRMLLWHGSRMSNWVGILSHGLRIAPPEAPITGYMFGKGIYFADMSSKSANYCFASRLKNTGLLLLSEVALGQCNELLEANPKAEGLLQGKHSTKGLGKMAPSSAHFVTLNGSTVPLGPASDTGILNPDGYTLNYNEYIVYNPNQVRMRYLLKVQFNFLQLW

Q: `C[C@]12CCCC[C@@H]1CC[C@@H]1[C@@H]2CC[C@]2(C)[C@@H](OCCCCCC(=O)N3CCN(C(=O)c4cc(Cc5n[nH]c(=O)c6ccccc56)ccc4F)CC3)CC[C@@H]12` [Compound 1.115] was tested. Which IC50 (Human recombinant PARP1) did it give?
A: 25.7 nM

Q: What about the IC50 (Human recombinant PARP2) of the same compound?
A: 1.5 nM

Q: What does the source list for `C[C@](O)(CS(=O)(=O)c1ccc(OCCCCCCN2CCN(C(=O)c3cc(Cc4n[nH]c(=O)c5ccccc45)ccc3F)CC2)cc1)C(=O)Nc1ccc(C#N)c(C(F)(F)F)c1` [Compound 1.96, (R)-N-(4-cyano-3-(trifluoromethyl)phenyl)-3-(4-(6-(4-(2-fluoro-5-((4-oxo-3,4-dihydrophthalazin-1-yl)methyl)benzoyl)piperazin-1-yl)hexyloxy)phenylsulfonyl)-2-hydroxy-2-methylpropanamide]?
A: IC50 (Human recombinant PARP1): 6 nM; IC50 (Human recombinant PARP2): 0.5 nM

Q: For `C[C@]12CC[C@@H]3c4ccc(O)cc4CC[C@H]3[C@@H]1CC[C@@H]2OCCCCCC(=O)N1CCN(C(=O)c2cc(Cc3n[nH]c(=O)c4ccccc34)ccc2F)CC1` [Compound 2.2, 4-(4-fluoro-3-(4-(6-((8R,9S,13S,14S,17S)-3-hydroxy-13-methyl-7,8,9,11,12,13,14,15,16,17-decahydro-6H-cyclopenta[a]phenanthren-17-yloxy)hexanoyl)piperazine-1-carbonyl)benzyl)phthalazin-1(2H)-one], which IC50 (22RV1 cells) is on record?
A: 390 nM

Q: Which results are given for `Cn1ncnc1[C@H]1c2n[nH]c(=O)c3cc(F)cc(c23)N[C@@H]1c1ccc(NC(=O)CCCCCO[C@H]2CC[C@H]3[C@@H]4CC[C@H]5CC(=O)CC[C@]5(C)[C@H]4CC[C@]23C)cc1` [Compound 1.4, 6-(((5S,8R,9S,10S,13S,14S,17S)-10,13-dimethyl-3-oxohexadecahydro-1H-cyclopenta[a]phenanthren-17-yl)oxy)-N-(4-(5-fluoro-9-(1-methyl-1H-1,2,4-triazol-5-yl)-3-oxo-2,7,8,9-tetrahydro-3H-pyrido[4,3,2-de]phthalazin-8-yl)phenyl)hexanamide]?
A: IC50 (Human recombinant PARP1): 2 nM; IC50 (Human recombinant PARP2): 0.4 nM; IC50 (LNCaP cells): 90 nM; IC50 (PC-3 cells): 20 nM; IC50 (HCT-116 cells): 110 nM

Q: How did the IC50 (Human recombinant PARP1) turn out when `Cn1ncnc1[C@@H]1c2n[nH]c(=O)c3cc(F)cc(c23)N[C@H]1c1ccc(NC(=O)CCCCCNC(=O)c2ccc(N3C(=S)N(c4ccc(C#N)c(C(F)(F)F)c4)C(=O)C3(C)C)cc2F)cc1` [ent-1.3, 4-(3-(4-cyano-3-(trifluoromethyl)phenyl)-5,5-dimethyl-4-oxo-2-thioxoimidazolidin-1-yl)-2-fluoro-N-(6-((4-((8R,9S)-5-fluoro-9-(1-methyl-1H-1,2,4-triazol-5-yl)-3-oxo-2,7,8,9-tetrahydro-3H-pyrido[4,3,2-de]phthalazin-8-yl)phenyl)amino)-6-oxohexyl)benzamide] was run?
A: 79 nM

Q: And the IC50 (Human recombinant PARP2)?
A: 16 nM

Q: What about the IC50 (LNCaP cells) of the same compound?
A: > 100000 nM

Q: Which results are given for `Cn1ncnc1[C@H]1c2n[nH]c(=O)c3cc(F)cc(c23)N[C@@H]1c1ccc(NC(=O)CCCCCNC(=O)c2ccc(N3C(=S)N(c4ccc(C#N)c(C(F)(F)F)c4)C(=O)C3(C)C)cc2F)cc1` [Compound 1.3, 4-(3-(4-cyano-3-(trifluoromethyl)phenyl)-5,5-dimethyl-4-oxo-2-thioxoimidazolidin-1-yl)-2-fluoro-N-(6-((4-((8S,9R)-5-fluoro-9-(1-methyl-1H-1,2,4-triazol-5-yl)-3-oxo-2,7,8,9-tetrahydro-3H-pyrido[4,3,2-de]phthalazin-8-yl)phenyl)amino)-6-oxohexyl)benzamide]?
A: IC50 (Human recombinant PARP1): 2 nM; IC50 (Human recombinant PARP2): 0.5 nM; IC50 (LNCaP cells): 490 nM; IC50 (PC-3 cells): 8800 nM; IC50 (HCT-116 cells): > 30000 nM
